Data from PubChem BioAssay (NCI).
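Step 1: Grow cells in 96-well plates. Step 2: Expose to compound for 48 hours at 5 concentrations. Step 3: Interpolate endpoints linearly; if unreached, use highest concentration. At the TGI there is no net growth.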

Columns and labels:
Test in all cases: DTP human tumour cell line panel, 48 h
[1] = tested on: NCI-H522 lung
[2] = tested on: LOX IMVI melanoma
[3] = tested on: NCI-H226 lung
[4] = tested on: HCT-15 colon
[5] = tested on: OVCAR-3 ovarian
[6] = tested on: HCC-2998 colon
[7] = tested on: HOP-62 NSCLC
[8] = tested on: SNB-19 CNS
[9] = tested on: A549 NSCLC
[10] = tested on: SK-OV-3 ovarian
[11] = tested on: UO-31 renal
[12] = tested on: SK-MEL-28 melanoma
[13] = tested on: HCT-116 colon
[14] = tested on: M14 melanoma
[15] = tested on: SW-620 colon
[16] = tested on: KM20L2 colon
[17] = tested on: NCI/ADR-RES ovarian
[18] = tested on: DU-145 prostate
[19] = tested on: PC-3 prostate
[20] = tested on: MCF7 breast

| SMILES | TGI [1] [µM] | TGI [2] [µM] | TGI [3] [µM] | TGI [4] [µM] | TGI [5] [µM] | TGI [6] [µM] | TGI [7] [µM] | TGI [8] [µM] | TGI [9] [µM] | TGI [10] [µM] | TGI [11] [µM] | TGI [12] [µM] | TGI [13] [µM] | TGI [14] [µM] | TGI [15] [µM] | TGI [16] [µM] | TGI [17] [µM] | TGI [18] [µM] | TGI [19] [µM] | TGI [20] [µM] |
| --- | --- | --- | --- | --- | --- | --- | --- | --- | --- | --- | --- | --- | --- | --- | --- | --- | --- | --- | --- | --- |
| CCC(C)(C)NC1=C(NC(C)=O)C(=O)c2ccccc2C1=O | 28.7 | > 75 | > 75 | > 75 | > 75 | > 75 | > 75 | > 75 | > 75 | > 75 | > 75 | > 75 | > 75 | > 75 | > 75 | > 75 | – | – | – | – |
| c1ccc2cc3n[se]nc3cc2c1 | > 100 | > 100 | – | > 100 | – | > 100 | – | > 100 | > 100 | > 100 | > 100 | > 100 | – | > 100 | > 100 | > 100 | – | – | – | – |
| CCC(=S)N(C)O | 8.28 | 51.8 | > 100 | > 100 | > 100 | > 95.7 | > 95.3 | > 100 | > 100 | > 100 | 68.9 | > 100 | 30.9 | > 100 | > 100 | > 100 | > 100 | > 100 | > 100 | > 100 |
| CCC12C=CCN3CC[C@]4(C(=C(C(=O)OC)[C@@H]1Nc1ccn(C5OC(COC(C)=O)C(OC(C)=O)C5OC(C)=O)c(=O)n1)Nc1ccccc14)C32 (stereo partly drawn) | 7.17 | 7.81 | 8.25 | 6.83 | 7.8 | 7.73 | 8.83 | 9.27 | 15.1 | 9.45 | 7.64 | 8.43 | 7.37 | 8.51 | 9.41 | 8.19 | – | – | – | – |
| CC1=NN(C(=O)c2ccc(Cl)cc2)C(=O)/C1=C/c1cccc(O)c1 | > 100 | > 100 | > 100 | > 100 | > 100 | > 100 | > 100 | > 100 | > 100 | > 100 | > 100 | > 100 | > 100 | > 100 | > 100 | > 100 | – | – | – | – |
| CC(C)(C)C1CCC2c3c([nH]c4ccccc34)C3C(=O)N(c4ccc(Br)cc4)C(=O)C3C2C1 (stereo not drawn) | – | 29.2 | 36.1 | 36.3 | – | 11.9 | 39.5 | 40 | 47.5 | – | 27.2 | > 100 | 91.9 | > 100 | 49.4 | 42.2 | – | – | – | – |
| C[n+]1c2ccccc2c(NC(CCC(N)=O)C(=O)O)c2ccccc21 (stereo not drawn) | > 100 | – | > 100 | > 100 | > 100 | > 100 | > 100 | > 100 | > 100 | > 100 | > 100 | – | > 100 | > 100 | > 100 | > 100 | – | – | – | – |
| CC1=CCC2(C#N)CCC1C2=O (stereo not drawn) | > 100 | > 100 | > 100 | > 100 | > 100 | – | > 100 | > 100 | > 100 | > 100 | > 100 | – | > 100 | > 100 | > 100 | > 100 | – | – | – | – |
| Nc1nc(=O)n(C2OC(CO)C(O)C2O)cc1F (stereo not drawn) | > 100 | > 38 | > 100 | > 100 | > 100 | > 100 | 0.175 | > 100 | > 100 | > 100 | > 100 | > 100 | > 100 | – | > 100 | > 100 | > 100 | – | – | > 100 |
| Cc1ccc2c(c1)NC(=O)C(N=[N+]=[N-])(c1ccccc1)C2=O (stereo not drawn) | 45.6 | 37.7 | – | 52.2 | 37.7 | > 100 | > 100 | 98.1 | > 100 | 84.3 | 90.7 | > 100 | 79.4 | 33 | > 100 | 74.6 | – | – | – | – |
| CCN(CC)CC(C)(C)C(=O)/C=C/c1ccc(C)cc1 | 8.93 | 24.1 | – | 14.8 | 21.7 | 21.6 | 32.9 | 25 | 42.7 | 60.6 | 22.2 | 27.8 | 27.4 | 25 | 15.7 | 13.3 | – | – | – | – |
| CCCCCCCCCCCCCCCCCC(=O)NCCCNCCCNC(=O)CCCCCCCCCCCCCCCCC | – | > 100 | > 100 | > 100 | > 100 | > 100 | > 100 | > 100 | > 100 | > 100 | > 100 | > 100 | > 100 | > 100 | > 100 | > 100 | – | – | – | – |
